In paper PMC2674587 (BMC Immunology, 2009):
pIC50: −log10 of the molar value. Read-outs that look alike come from different tables or passages of the source.

What was measured:
[1] = test system: Fibroblast activation protein; conditions: read-out: does not inhibit Fibroblast activation protein; cited from earlier work
Prolyl endopeptidase = conditions: read-out: does not inhibit Prolyl endopeptidase; cited from earlier work
Prolidase = conditions: read-out: does not inhibit Prolidase; cited from earlier work
hDPP-9 [2] = biological target: T1, hDPP-9 (Homo sapiens, UniProt Q86TI2); set-up: method as in PMID 16186403, PMID 16731832; conditions: read-out: does not inhibit DPP-9 at; cited from earlier work
T1 sequence (Q86TI2 whole entry): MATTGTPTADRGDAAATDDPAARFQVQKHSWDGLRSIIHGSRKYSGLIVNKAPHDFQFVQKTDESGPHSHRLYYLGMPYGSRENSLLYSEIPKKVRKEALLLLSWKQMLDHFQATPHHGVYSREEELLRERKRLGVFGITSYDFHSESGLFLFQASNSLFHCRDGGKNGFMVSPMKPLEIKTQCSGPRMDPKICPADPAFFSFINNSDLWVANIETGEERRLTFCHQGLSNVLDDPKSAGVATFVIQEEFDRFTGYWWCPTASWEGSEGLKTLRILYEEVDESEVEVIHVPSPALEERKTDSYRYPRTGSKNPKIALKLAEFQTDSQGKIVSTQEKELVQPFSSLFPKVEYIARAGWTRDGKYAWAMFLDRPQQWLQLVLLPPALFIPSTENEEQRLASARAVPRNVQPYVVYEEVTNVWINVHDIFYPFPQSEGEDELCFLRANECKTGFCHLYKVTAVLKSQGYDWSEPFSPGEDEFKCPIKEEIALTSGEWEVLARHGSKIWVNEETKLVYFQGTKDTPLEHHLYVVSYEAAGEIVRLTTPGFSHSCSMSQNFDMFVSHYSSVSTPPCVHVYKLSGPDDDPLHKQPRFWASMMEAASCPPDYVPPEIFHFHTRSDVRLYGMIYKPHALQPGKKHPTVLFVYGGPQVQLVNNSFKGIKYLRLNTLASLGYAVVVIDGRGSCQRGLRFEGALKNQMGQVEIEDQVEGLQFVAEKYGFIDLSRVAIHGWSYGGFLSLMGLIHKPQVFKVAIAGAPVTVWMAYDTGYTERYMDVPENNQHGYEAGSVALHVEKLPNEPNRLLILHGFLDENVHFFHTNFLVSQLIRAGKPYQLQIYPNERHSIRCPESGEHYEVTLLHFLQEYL

[3] = test system: H-Y+ target cells (male splenocytes); test: In vivo cytotoxicity (CTL) assay against H-Y antigen; set-up: species or system C57BL/6 mice; conditions: for killing of male cells (CD8 T cell mediated): female mice primed and boosted with male splenocytes, CFSE-labeled targets, FACS, n = 8
Method: C57BL/6 female and male mice, age 8 ~10 weeks, were used for in vivo cytotoxicity assays. Female mice were immunized i.p. with syngeneic C57BL/6 male splenocytes (1 × 10^7 in 100 μl PBS) at day 0 and boosted at day 10 to generate anti-H-Y cytotoxic T cells. The in vivo CTL assay was performed as described earlier with some modifications Target cells were prepared and adoptively transferred to recipient female mice at day 18 post priming and specific killing of target H-Y^+ cells was analyzed at day 19. Briefly, male and female C57BL/6 naïve splenocytes were isolated and depleted of erythrocyte with RBC lysis buffer (Sigma-Aldrich, St. Louis, MO, USA). The splenocytes were washed 1× with 10% FBS RPMI 1640 and 2× with PBS. The cell densities were adjusted to 2×10^7 cells/ml. Male splenocytes were labeled with a high concentration (5 μM) of 5,6-carboxy-fluorescein succinimdyl ester (CFSE, Molecular Probes, Eugene, OR, USA), and the female splenocyte were labeled with low CFSE (0.5 μM). CFSE labeling was carried out by incubating 2 × 10^7 cells/ml in PBS with CFSE at 37°C in a 5% CO2 incubator for 10 min and quenched by adding 10% FBS RPMI to a final volume of 50 ml. Cells were washed 1× with 10%FBS RPMI and 2× with PBS to remove free CFSE. Male and female splenocytes were mixed 1:1 in PBS for the adoptive transfer. 10^6 cells in 200 μl PBS were injected into recipient female mice via tail vein injection. Similar amounts of cell were injected into the control unimmunized female mice. Spleens from the recipient mice were harvested after 16 hr, and splenocytes were analyzed for specific killing of H-Y^+ target cells by FACS. At least 5,000 CFSE positive cells were analyzed. The recovery and percent killing of the CFSE-labeled targets were calculated as follows: […]

hDPP-2 = hDPP-2 (Homo sapiens, UniProt Q9UHL4); test: DPP-2 enzyme inhibition; assay type: biochemical
Proline dipeptidase = conditions: read-out: does not inhibit Proline dipeptidase; cited from earlier work
Amino peptidase P = conditions: read-out: does not inhibit Amino peptidase P; cited from earlier work
[4] = test system: T cell-dependent antibody responses to NP-CGG; test: T cell-dependent antibody responses to NP-CGG (ELISA titers, altered ligand density ELISA); assay type: in vivo, C57BL/6 mice; conditions: mice on chow ~400 mg/kg, immunized with NP-CGG
Method: Mice were immunized i.p. with 100 μg of NP-CGG in alum for the primary immunization, and 100 μg of NP-CGG in PBS i.p. for the secondary immunization. Mice were bled via the retro orbital sinus at indicated times and the levels of anti-NP and CGG antibodies and their isotypes were determined by ELISA as described previously. Briefly, mouse serum antibodies were immobilized onto 96-well plates coated with NP-BSA or CGG and detected with biotin-conjugated anti-mouse immunoglobulins. […] Relative affinities of serum antibodies were evaluated by using altered ligand density ELISA as described earlier.

hDPP-9 [5] = biological target: T1, hDPP-9; test: DPP-9 enzyme inhibition; assay type: biochemical

SMILES	pIC50 [1]	pIC50 (Prolyl endopeptidase)	pIC50 (Prolidase)	pIC50 (hDPP-9 [2])	killing of male cells (CD8 T cell mediated) [3]	CD8 T cell cytotoxicity in comparison to the wild type animals ([3]; female mice primed with male cells, compound in chow throughout)	pIC50 (hDPP-2)	pIC50 (Proline dipeptidase)	pIC50 (Amino peptidase P)	titers of anti-CGG IgG1 and other isotypes, drug treated vs control animals [4]	total anti-NP response as measured by λ-bearing and G1 isotype ([4]; primary and secondary response vs control)	pIC50 (hDPP-9 [5])
N[C@@H](CC(=O)N1CCn2c(nnc2C(F)(F)F)C1)Cc1cc(F)ccc1F [Des-flurositagliptin, des-fluro sitagliptin]	< 5.00	< 5.00	< 5.00	< 5.00	~ 67%	equivalent cytotoxicity	< 5.00	< 5.00	< 5.00	similar	unaltered	< 5.00
C=CC[C@@H]1/C=C(\C)C[C@H](C)C[C@H](OC)[C@H]2O[C@@](O)(C(=O)C(=O)N3CCCC[C@H]3C(=O)O[C@H](/C(C)=C/[C@@H]3CC[C@@H](O)[C@H](OC)C3)[C@H](C)[C@@H](O)CC1=O)[C@H](C)C[C@@H]2OC [FK506]	–	–	–	–	40%	–	–	–	–	–	–	–
